Test results taken from patent publication US20210299034A1, “A Topical Composition” (Conopco, Inc., d/b/a UNILEVER, priority 2018, published 2021).

Tested on: Human primary melanocytes
Assay: Melanin content assay in α-MSH-stimulated melanocytes
Format: cell-based
Conditions: for Melanin Content (%) Average ± SD: 72 h, untreated control (A) = 100
Protocol: Human primary melanocytes were grown in melanocytes growth medium (MGM) with human melanocyte growth supplement. 500 μL/well (5×10^4 cells/well) of this solution was plated in a 24 wells plate and incubated in an incubator (Thermo Scientific, Model 3111) at 37° C. with 5% CO2 atmosphere.
After 24 h of incubation, cell cultures were treated with the test actives (as outlined in table 1) dissolved in 20% ethanol. After 1 h of actives addition, 10 nM of α-MSH was added. The cells were again incubated for 72 h in an incubator. At the end of this incubation period, the culture medium was replaced with 120 μL/well of melanin content assay reagent (10% Dimethyl sulfoxide in 1 N sodium hydroxide) and incubated for 1 h at 60° C. in a shaker incubator. The supernatant was then transferred to a 384 well plate. The absorbance was measured at 405 nm with a microtiter plate reader (Genios Pro, Tecan M 1000).
In the first set of experiments, human primary melanocytes were subjected to treatments as outlined in table 1 below.

Compound: CCc1ccc(O)cc1O [C, 4-ethyl resorcinol]
- Melanin Content (%) Average ± SD (4-ER 50 μM, 10 nM α-MSH added 1 h after active, absorbance 405 nm): 68 ± 12.7%

Compound: α-Melanocyte stimulating hormone [B]
- Melanin content, comparison in words (10 nM MSH, example 1 vs black tea (example D), example B vs untreated control (example A)): over and above the control cells
- Melanin Content (%) Average ± SD (MSH 10 nM alone, no test active): 121 ± 9.7%
